From patent US9879303B2, “Chromogenic glucuronidase substrates and uses” (Glycosynth Limited, priority 2013, dated 2018)
Counter-ions that a name gives are not always drawn.

Tests used:
Assay in all cases: multi-point inoculation onto Columbia agar plates
Type in all cases: cell-based
Conditions in all cases: substrate 300 mg/L, FAC 500 mg/L, 18 h at 37° C. in air
[1] = test system: Streptococcus pyogenes NCTC 8306; also: key: ++ means strong colour; + means less colour than ++; − means no colour
Procedure: (§1) The specificity of action of both DHN-β-D-glucuronide (2) and of catechol-β-D-glucuronide (1), as well as their 6′-methyl esters (4 and 6), was first established using multi-point inoculation of 20 different microbial strains onto Columbia agar plates. The strains chosen represented species commonly encountered in diagnostic microbiology. The substrates were incorporated into the agar at a concentration of 300 mg/L with an iron salt, ferric ammonium citrate, (hereinafter known as FAC) at 500 mg/L. The plates were incubated for 18 h at 37° C. in air.

[2] = test system: Serratia marcescens NCTC 10211; also: key: ++ means strong colour; + means less colour than ++; − means no colour
Procedure: as §1

[3] = test system: Enterococcus faecalis NCTC 775; also: key: ++ means strong colour; + means less colour than ++; − means no colour
Procedure: as §1

[4] = test system: Candida albicans ATCC 90028; also: key: ++ means strong colour; + means less colour than ++; − means no colour
Procedure: as §1

[5] = test system: Escherichia coli NCTC 10418; also: key: ++ means strong colour; + means less colour than ++; − means no colour
Procedure: as §1

[6] = test system: Staphylococcus aureus NCTC 6571; also: key: ++ means strong colour; + means less colour than ++; − means no colour
Procedure: as §1

[7] = test system: Providencia rettgeri NCTC 7475; also: key: ++ means strong colour; + means less colour than ++; − means no colour
Procedure: as §1

[8] = test system: Burkholderia cepacia NCTC 10931
Procedure: as §1

[9] = test system: Staphylococcus aureus (MRSA) NCTC 11939
Procedure: as §1

[10] = test system: Yersinia enterocolitica NCTC 11176
Procedure: as §1

[11] = test system: Enterobacter cloacae NCTC 11936; also: key: ++ means strong colour; + means less colour than ++; − means no colour
Procedure: as §1

[12] = test system: Staphylococcus epidermidis NCTC 11047; also: key: ++ means strong colour; + means less colour than ++; − means no colour
Procedure: as §1

[13] = test system: Salmonella typhimurium NCTC 74; also: key: ++ means strong colour; + means less colour than ++; − means no colour
Procedure: as §1

[14] = test system: Pseudomonas aeruginosa NCTC 10662; also: key: ++ means strong colour; + means less colour than ++; − means no colour
Procedure: as §1

[15] = test system: Listeria monocytogenes NCTC 11994; also: key: ++ means strong colour; + means less colour than ++; − means no colour
Procedure: as §1

[16] = test system: Candida glabrata NCPF 3943; also: key: ++ means strong colour; + means less colour than ++; − means no colour
Procedure: as §1

[17] = test system: Acinetobacter baumanaii NCTC 19606; also: key: ++ means strong colour; + means less colour than ++; − means no colour
Procedure: as §1

[18] = test system: Enterococcus faecium NCTC 7171; also: key: ++ means strong colour; + means less colour than ++; − means no colour
Procedure: as §1

Row | Structure (SMILES) | colour [1] | colour [2] | colour [3] | colour [4] | colour [5] | colour [6] | colour [7] | colour [8] | colour [9] | colour [10] | colour [11] | colour [12] | colour [13] | colour [14] | colour [15] | colour [16] | colour [17] | colour [18]
1 | O=C(O)C1OC(Oc2ccccc2O)C(O)C(O)C1O [Compound 1, Catechol β-D-Glucuronide CHA Salt] | − | − | − | − | ++ | − | − | − | − | − | − | − | − | − | − | − | − | −
2 | O=C(O)C1OC(Oc2cc3ccccc3cc2O)C(O)C(O)C1O [Compound 2b, DHN-β-D-Glucuronide CHA Salt] | − | − | − | − | ++ | − | − | − | − | − | − | − | − | − | − | − | − | −
